The values below come from patent US9248124B2, “Use of inhibitors of IκB kinase for the treatment of cancer” (Millennium Pharmaceuticals, Inc., priority 2001, dated 2016).

Common to all, as to assay type: cell-based, human
The subject of assay [1] is p42/44 MAPK phosphorylation. Description: Immunoblot of IL-6 induced p42/44 MAPK phosphorylation in MM.1S cells. The note with it: IL-6 50 ng/mL for 5 min, compound 1 10 μM 90 min, PS-341 5 μM 60 min, FIG. 5. As to the method: (§1) MM cells were cultured with PS-341 or compound 1; harvested; washed; and lysed using lysis buffer: 50 mM Tris-HCl (pH 7.4), 150 mM NaCl, 1% NP-40, 5 mM EDTA, 5 mM NaF, 2 mM Na3VO4, 1 mM PMSF, 5 μg/mL leupeptin, and 5 μg/mL aprotinin. For detection of phospho-IκBα, IκBα, phospho-MAPK, phospho-STAT3, ERK2 or alpha-tubulin, cell lysates were subjected SDS-PAGE, transferred to PVDF membrane (Bio-Rad Laboratories, Hercules, Calif.), and immunoblotted with anti-phospho-IκBα, -IκBα, -phospho-MAPK, or -phospho-STAT3 Abs (Cell Signaling, Beverly, Mass.), and anti-alpha-tubulin (Sigma) Abs.

Assay [2] relates to ICAM-1 expression on MM.1S and RPMI8226 cells. Description: Flow cytometry of TNFα-induced ICAM-1 expression on MM cells. The note with it: TNFα 5 ng/mL, compound 1 10 μM, 24 h, FIG. 10. Here is the method:
For cell cycle analysis, MM cells cultured for 24-48 h in compound 1 (10 μM), Dex (1 μM); IL-6 (20 ng/mL), or control media were harvested, washed with phosphate-buffered saline (PBS), fixed with 70% ethanol, and treated with 10 μg/mL of RNase (Roche Diagnostics Corp., Indianapolis, Ind.). Cells were then stained with propidium iodine (PI, Sigma) (5 μg/mL). For detection of ICAM-1 expression, MM cells cultured in TNFα (5 ng/mL) in the presence or absence of compound 1 (10 μM) were harvested, washed with PBS, and stained with mouse IgG isotype control or FITC-conjugated mouse anti-human CD54 Ab. Both cell cycle profile and ICAM-1 expression were determined using an Epics (Coulter Immunology, Hialeah, Fla.) flow cytometer, as in prior studies (Hideshima et al., Oncogene 20:4519 (2001)).
In general terms: Flow cytometry measures light scatter and fluorescence of single cells or particles in a stream.

The subject of the next assay is STAT3 phosphorylation. The experiment in a line: Immunoblot of IL-6 induced STAT3 phosphorylation in MM.1S cells. The note with it: IL-6 50 ng/mL for 5 min, compound 1 10 μM 90 min, FIG. 5. Here is the method:
as §1
Background: Immunoblotting shows a protein as a band on a membrane.

The test system of a further assay is Akt phosphorylation. The experiment in a line: Phosphorylation of Akt triggered by IL-6 in MM.1S cells. The following applies: compound 1 pre-treatment, data not shown.
For assay [3], the system named is NF-κB activation in MM.1S cells. Description: Electrophoretic mobility shift assay (EMSA) of NF-κB activation in MM.1S cells. As to the method: Electrophoretic mobility shift analyses (EMSA) were carried out as in previous studies (Hideshima et al., Oncogene 20:4519 (2001); Hideshima et al., Cancer Res. 61:3071 (2001)). Briefly, MM.1S cells were pre-incubated with PS-341 (5 μM for 1 h) and compound 1 (10 μM for 90 min) before stimulation with TNFα (5 ng/mL) for 10 or 20 min. Cells were then pelleted, resuspended in 400 μL of hypotonic lysis buffer (20 mM HEPES, pH 7.9, 10 mM KCl, 1 mM EDTA, 0.2% Triton X-100, 1 mM Na3VO4, 5 mM NaF, 1 mM PMSF, 5 μg/mL leupeptin, 5 μg/mL aprotinin), and kept on ice for 20 min. After centrifugation (14000 g for 5 min) at 4° C., the nuclear pellet was extracted with 100 μL hypertonic lysis buffer (20 mM HEPES, pH 7.9, 400 mM NaCl, 1 mM EDTA, 1 mM Na3VO4, 5 mM NaF, 1 mM PMSF, 5 μg/mL leupeptin, 5 μg/mL aprotinin) on ice for 20 min. After centrifugation (14000 g for 5 min) at 4° C., the supernatant was collected as nuclear extract. […]
Since NF-κB activation requires phosphorylation, ubiquitination, and degradation of IκBα, we next examined whether compound 1 could inhibit NF-κB activation, assessed by EMSA. […]
In general terms: Mobility shift assays separate free from complexed probe on a gel.

In another assay the test system is MM.1S cells. The experiment in a line: DNA synthesis ([3H]-TdR uptake) in MM.1S cells with Dex, IL-6, Thal or IMiD3. The following applies: 48 h. Here is the method: Proliferation was measured as previously described (Hideshima et al., Blood 96:2943 (2000)). MM cells (3×10^4 cells/well) were incubated in 96-well culture plates (Costar, Cambridge, Mass.) in the presence of media, PS-341, compound 1 and/or Dex or recombinant human IL-6 (Genetics Institute, Cambridge, Mass.) for 48 h at 37° C. DNA synthesis was measured by [^3H]-thymidine ([^3H]-TdR, NEN Products, Boston, Mass.) uptake. Cells were pulsed with [^3H]TdR (0.5 μCi/well) during the last 8 h of 48 h cultures. All experiments were performed in triplicate.

Turning to `O=C(Nc1cc(Cl)cc2c1[nH]c1cnccc12)c1cccnc1` [compound 1, N-(6-chloro-9H-β-carbolin-8-yl)-nicotinamide], the “p42/44 MAPK phosphorylation” value in assay [1] is listed as “does not inhibit”. Also, the “TNFα-induced upregulation of ICAM-1 expression” value in assay [2] is “inhibits”. Besides, the STAT3 phosphorylation entry in the assay with STAT3 phosphorylation is “does not inhibit”. The “Phosphorylation of Akt triggered by IL-6” value with Akt phosphorylation is listed as “unaffected”. Also, in assay [3] (compound 1 2.5-10 μM for 90 min, dose-dependent fashion, FIG. 6C), the “NF-κB activation triggered by TNFα (EMSA), dose dependence” value was “inhibits”. For the same compound, the “NF-κB activation (EMSA)” value in assay [3] (pre-treated 10 μM for 90 min, TNFα 5 ng/mL for 0-20 min, FIG. 2) is listed as “completely inhibited”. In addition, the “inhibitory effect of IL-6 against IMiD3” value in the assay with MM.1S cells (compound 1 10 μM, IL-6 20 ng/mL, FIG. 9) is “neutralized”. In addition, the “protective effect of IL-6 on Dex-induced growth inhibition” value in the assay with MM.1S cells (compound 1 0.4-10 μM, Dex 0.1 μM, IL-6 50 ng/mL, FIG. 8C) is “abrogated”. The “constitutive and IL-6 induced DNA synthesis in MM.1S cells” value with MM.1S cells (compound 1 1.5-12.5 μM, IL-6 0.5-50 ng/mL, dose dependent, FIG. 8B) is “abrogated”. The “effect of compound 1 on Dex inhibition of proliferation” value in the assay with MM.1S cells (compound 1 1.5-50 μM with Dex, FIG. 8A) is “did not enhance”.
